{"source": "patent US12440498B2", "about": "(priority 2020, dated 2025)", "key": {"[1]": {"details": "human, in vivo; cited from earlier work"}, "[2]": {"test_system": "influenza", "details": "human, in vivo; cited from earlier work"}, "[3]": {"test_system": "A/H1N1nLuc recombinant virus", "experiment": "microbe, parasite or virus in culture", "type": "cell-based, influenza A virus"}, "[4]": {"test_system": "A/H3N2 (A/Texas/50/2012 H3N2)", "type": "cell-based, influenza A virus"}, "[5]": {"details": "in vivo; cited from earlier work"}, "[6]": {"test_system": "A/H1N1 virus", "experiment": "microbe, parasite or virus in culture", "type": "cell-based, influenza A virus"}, "[7]": {"test_system": "A/H1N1 pdm09 (A/Lyon/969/2009 H1N1)", "type": "cell-based, influenza A virus"}, "[8]": {"test_system": "recombinant A/H1N1 pdm09 wildtype (WT)", "type": "cell-based"}, "[9]": {"test_system": "flu virus", "details": "human, in vivo, po; cited from earlier work"}}, "note": "Like-named read-outs stand apart in the source and are kept apart here."}
{"smiles": "COC(=O)OCOc1c2n(ccc1=O)N([C@@H]1c3ccccc3SCc3c1ccc(F)c3F)[C@@H]1COCCN1C2=O", "note": "[baloxavir marboxil]", "values": [{"measurement": "patients with mainly digestive side effects (nausea, diarrhea, etc.)", "setting": "[1]", "value": "4-5%"}, {"measurement": "median time to cessation of viral shedding", "setting": "[2]", "value": 48, "unit": "h"}]}
{"smiles": "O=C1c2c(O)c(=O)ccn2N([C@@H]2c3ccccc3SCc3c2ccc(F)c3F)[C@@H]2COCCN12", "note": "[baloxavir, baloxavir acid]", "values": [{"measurement": "EC50", "setting": "[3]; Influenza A virus, A549", "value": 0.000144, "unit": "µM"}, {"measurement": "reduction of production of A/H3N2 infectious particles", "setting": "[4]", "value": 3, "unit": "log 10"}, {"measurement": "half-life (hepatic elimination)", "setting": "[5]", "value": "50 to 90", "unit": "h"}, {"measurement": "increase of IC50 relative to the initial IC50", "setting": "[6]", "value": 35, "unit": "times"}, {"measurement": "reduction of production of A/H1N1 infectious particles", "setting": "[7]", "value": 4, "unit": "log 10"}, {"measurement": "reduction of production of A/H1N1 infectious particles", "setting": "[8]", "value": 3, "unit": "log 10"}]}
{"smiles": "COc1ccc([C@@H]2Sc3ccccc3N(CCN(C)C)C(=O)[C@@H]2OC(C)=O)cc1.Cl", "note": "[diltiazem]", "values": [{"measurement": "EC50", "setting": "[3]", "value": 53.8, "unit": "µM"}, {"measurement": "EC50", "setting": "[3]; Influenza A virus, A549", "value": 50.1, "unit": "µM"}, {"measurement": "IC50", "setting": "[6]; Influenza A virus, H1N1, MDCK, read-out: median inhibitory concentration (IC50)", "value": 5, "unit": "µM"}]}
{"smiles": "NC(=O)c1nc(F)c[nH]c1=O", "note": "[favipiravir]", "values": [{"measurement": "EC50", "setting": "[3]; Influenza A virus, A549", "value": 2.49, "unit": "µM"}]}
{"smiles": "CCOC(=O)C1=C[C@@H](OC(CC)CC)[C@H](NC(C)=O)[C@@H](N)C1", "note": "[oseltamivir]", "values": [{"measurement": "median time to cessation of viral shedding", "setting": "[2]", "value": 72, "unit": "h"}]}
{"smiles": "NC(=O)c1ncn([C@@H]2O[C@H](CO)[C@@H](O)[C@H]2O)n1", "note": "[ribavirin]", "values": [{"measurement": "efficacy against flu virus", "setting": "[9]", "value": "not effective"}]}
